From ChEMBL document CHEMBL1909046, “DrugMatrix in vitro pharmacology data”

Tested on: not listed separately
Test: DRUGMATRIX: Phosphodiesterase PDE3 enzyme inhibition (substrate: [3H]cAMP + cAMP)
Format: tissue-based, Homo sapiens
Conditions: platelet; Not Active = under 50% inhibition at 10 µM

Row | Structure (SMILES) | IC50 | Ki
1 | Brc1c(NC2=NCCN2)ccc2nccnc12 [BRIMONIDINE] | Not Active | Not Active
2 | CN(C)[C@@H]1C(O)=C(C(N)=O)C(=O)[C@@]2(O)C(O)=C3C(=O)c4c(O)ccc(Cl)c4[C@@](C)(O)[C@H]3C[C@@H]12 [CHLORTETRACYCLINE] | Not Active | Not Active
3 | CN/C(=N\CCSCc1nc[nH]c1C)NC#N [CIMETIDINE] | Not Active | Not Active
4 | COc1cc(N)c(Cl)cc1C(=O)NC1CCN(CCCOc2ccc(F)cc2)CC1OC (stereo not drawn) [CISAPRIDE] | Not Active | Not Active
5 | CCC(=O)O[C@]1(C(=O)CCl)[C@@H](C)C[C@H]2[C@@H]3CCC4=CC(=O)C=C[C@]4(C)[C@@]3(F)[C@@H](O)C[C@@]21C [CLOBETASOL PROPIONATE] | Not Active | Not Active
6 | O=C1CN=C(c2ccccc2Cl)c2cc([N+](=O)[O-])ccc2N1 [CLONAZEPAM] | Not Active | Not Active
7 | Nc1ccn([C@@H]2O[C@H](CO)[C@@H](O)[C@@H]2O)c(=O)n1 [CYTARABINE] | Not Active | Not Active

Target: T1, Adenosine receptor A1 (Homo sapiens, UniProt P30542);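 also: radioligand binding assay at the adenosine A1 receptor, with DPCPX serving as the labelled ligand; in other assays of this panel Not Active means under 50% inhibition at 10 µM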
T1 sequence (P30542 whole entry): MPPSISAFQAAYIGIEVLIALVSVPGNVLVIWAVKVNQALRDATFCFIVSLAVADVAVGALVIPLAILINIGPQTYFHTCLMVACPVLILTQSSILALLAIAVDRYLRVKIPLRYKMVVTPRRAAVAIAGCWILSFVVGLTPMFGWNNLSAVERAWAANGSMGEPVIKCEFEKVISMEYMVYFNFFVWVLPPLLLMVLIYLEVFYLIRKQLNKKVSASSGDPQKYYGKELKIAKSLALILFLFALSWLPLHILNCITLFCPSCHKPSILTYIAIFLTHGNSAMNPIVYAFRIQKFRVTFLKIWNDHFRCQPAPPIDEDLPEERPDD
Test: not given
Format: cell membranes, CHO, Membrane
Conditions: cho

Row | Structure (SMILES) | IC50
8 | Brc1c(NC2=NCCN2)ccc2nccnc12 [BRIMONIDINE] | Not Active
9 | CN(C)[C@@H]1C(O)=C(C(N)=O)C(=O)[C@@]2(O)C(O)=C3C(=O)c4c(O)ccc(Cl)c4[C@@](C)(O)[C@H]3C[C@@H]12 [CHLORTETRACYCLINE] | Not Active
10 | CN/C(=N\CCSCc1nc[nH]c1C)NC#N [CIMETIDINE] | Not Active
11 | COc1cc(N)c(Cl)cc1C(=O)NC1CCN(CCCOc2ccc(F)cc2)CC1OC (stereo not drawn) [CISAPRIDE] | Not Active
12 | CCC(=O)O[C@]1(C(=O)CCl)[C@@H](C)C[C@H]2[C@@H]3CCC4=CC(=O)C=C[C@]4(C)[C@@]3(F)[C@@H](O)C[C@@]21C [CLOBETASOL PROPIONATE] | Not Active
13 | O=C1CN=C(c2ccccc2Cl)c2cc([N+](=O)[O-])ccc2N1 [CLONAZEPAM] | Not Active
14 | Nc1ccn([C@@H]2O[C@H](CO)[C@@H](O)[C@@H]2O)c(=O)n1 [CYTARABINE] | Not Active

Target: T2, Angiotensin-converting enzyme (Oryctolagus cuniculus, UniProt P12822);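 also: enzymatic inhibition of angiotensin-converting enzyme measured with FAPGG as the substrate; in other assays of this panel Not Active means under 50% inhibition at 10 µM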
T2 sequence (P12822 whole entry): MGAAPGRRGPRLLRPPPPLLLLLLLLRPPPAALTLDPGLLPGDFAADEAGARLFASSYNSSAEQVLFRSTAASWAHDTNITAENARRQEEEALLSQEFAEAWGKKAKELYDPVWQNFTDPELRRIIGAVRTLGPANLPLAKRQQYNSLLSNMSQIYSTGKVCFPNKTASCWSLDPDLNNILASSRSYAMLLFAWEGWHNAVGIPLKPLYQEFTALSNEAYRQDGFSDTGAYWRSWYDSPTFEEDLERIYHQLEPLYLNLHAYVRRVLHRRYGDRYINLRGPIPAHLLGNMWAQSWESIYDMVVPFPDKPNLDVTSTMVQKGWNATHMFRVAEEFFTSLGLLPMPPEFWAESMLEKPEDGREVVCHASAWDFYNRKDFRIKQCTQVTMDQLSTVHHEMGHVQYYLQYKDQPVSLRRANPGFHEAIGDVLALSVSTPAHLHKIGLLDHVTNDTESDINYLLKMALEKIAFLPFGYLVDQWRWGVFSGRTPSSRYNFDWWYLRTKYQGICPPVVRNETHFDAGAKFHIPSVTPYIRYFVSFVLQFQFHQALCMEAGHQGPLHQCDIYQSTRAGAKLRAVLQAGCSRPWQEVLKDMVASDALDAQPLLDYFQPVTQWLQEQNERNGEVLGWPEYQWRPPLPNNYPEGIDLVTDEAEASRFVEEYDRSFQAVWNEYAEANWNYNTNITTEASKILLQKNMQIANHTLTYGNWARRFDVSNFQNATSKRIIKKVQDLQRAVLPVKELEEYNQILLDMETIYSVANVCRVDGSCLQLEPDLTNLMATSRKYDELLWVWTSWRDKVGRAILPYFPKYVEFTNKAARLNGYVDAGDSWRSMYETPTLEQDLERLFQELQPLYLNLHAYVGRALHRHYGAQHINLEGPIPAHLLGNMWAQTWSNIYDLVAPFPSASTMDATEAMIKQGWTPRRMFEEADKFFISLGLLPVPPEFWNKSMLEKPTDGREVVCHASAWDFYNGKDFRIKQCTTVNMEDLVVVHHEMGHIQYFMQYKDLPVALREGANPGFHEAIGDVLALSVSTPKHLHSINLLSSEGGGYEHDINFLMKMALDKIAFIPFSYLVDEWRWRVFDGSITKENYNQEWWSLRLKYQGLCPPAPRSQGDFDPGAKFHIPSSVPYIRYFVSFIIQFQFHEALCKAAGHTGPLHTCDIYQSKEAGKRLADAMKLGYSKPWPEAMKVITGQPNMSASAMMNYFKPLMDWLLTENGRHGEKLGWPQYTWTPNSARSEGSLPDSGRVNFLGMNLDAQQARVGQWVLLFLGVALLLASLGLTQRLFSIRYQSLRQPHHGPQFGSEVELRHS
Test: not given
Format: tissue-based, Lung
Conditions: not given

Row | Structure (SMILES) | IC50
15 | Brc1c(NC2=NCCN2)ccc2nccnc12 [BRIMONIDINE] | Not Active
16 | CN(C)[C@@H]1C(O)=C(C(N)=O)C(=O)[C@@]2(O)C(O)=C3C(=O)c4c(O)ccc(Cl)c4[C@@](C)(O)[C@H]3C[C@@H]12 [CHLORTETRACYCLINE] | Not Active
17 | CN/C(=N\CCSCc1nc[nH]c1C)NC#N [CIMETIDINE] | Not Active
18 | COc1cc(N)c(Cl)cc1C(=O)NC1CCN(CCCOc2ccc(F)cc2)CC1OC (stereo not drawn) [CISAPRIDE] | Not Active
19 | CCC(=O)O[C@]1(C(=O)CCl)[C@@H](C)C[C@H]2[C@@H]3CCC4=CC(=O)C=C[C@]4(C)[C@@]3(F)[C@@H](O)C[C@@]21C [CLOBETASOL PROPIONATE] | Not Active
20 | O=C1CN=C(c2ccccc2Cl)c2cc([N+](=O)[O-])ccc2N1 [CLONAZEPAM] | Not Active
21 | Nc1ccn([C@@H]2O[C@H](CO)[C@@H](O)[C@@H]2O)c(=O)n1 [CYTARABINE] | Not Active

Target: Vascular endothelial growth factor receptor 1 (Homo sapiens, UniProt P17948); also: in other assays of this panel Not Active means under 50% inhibition at 10 µM
Sequence (P17948 whole entry): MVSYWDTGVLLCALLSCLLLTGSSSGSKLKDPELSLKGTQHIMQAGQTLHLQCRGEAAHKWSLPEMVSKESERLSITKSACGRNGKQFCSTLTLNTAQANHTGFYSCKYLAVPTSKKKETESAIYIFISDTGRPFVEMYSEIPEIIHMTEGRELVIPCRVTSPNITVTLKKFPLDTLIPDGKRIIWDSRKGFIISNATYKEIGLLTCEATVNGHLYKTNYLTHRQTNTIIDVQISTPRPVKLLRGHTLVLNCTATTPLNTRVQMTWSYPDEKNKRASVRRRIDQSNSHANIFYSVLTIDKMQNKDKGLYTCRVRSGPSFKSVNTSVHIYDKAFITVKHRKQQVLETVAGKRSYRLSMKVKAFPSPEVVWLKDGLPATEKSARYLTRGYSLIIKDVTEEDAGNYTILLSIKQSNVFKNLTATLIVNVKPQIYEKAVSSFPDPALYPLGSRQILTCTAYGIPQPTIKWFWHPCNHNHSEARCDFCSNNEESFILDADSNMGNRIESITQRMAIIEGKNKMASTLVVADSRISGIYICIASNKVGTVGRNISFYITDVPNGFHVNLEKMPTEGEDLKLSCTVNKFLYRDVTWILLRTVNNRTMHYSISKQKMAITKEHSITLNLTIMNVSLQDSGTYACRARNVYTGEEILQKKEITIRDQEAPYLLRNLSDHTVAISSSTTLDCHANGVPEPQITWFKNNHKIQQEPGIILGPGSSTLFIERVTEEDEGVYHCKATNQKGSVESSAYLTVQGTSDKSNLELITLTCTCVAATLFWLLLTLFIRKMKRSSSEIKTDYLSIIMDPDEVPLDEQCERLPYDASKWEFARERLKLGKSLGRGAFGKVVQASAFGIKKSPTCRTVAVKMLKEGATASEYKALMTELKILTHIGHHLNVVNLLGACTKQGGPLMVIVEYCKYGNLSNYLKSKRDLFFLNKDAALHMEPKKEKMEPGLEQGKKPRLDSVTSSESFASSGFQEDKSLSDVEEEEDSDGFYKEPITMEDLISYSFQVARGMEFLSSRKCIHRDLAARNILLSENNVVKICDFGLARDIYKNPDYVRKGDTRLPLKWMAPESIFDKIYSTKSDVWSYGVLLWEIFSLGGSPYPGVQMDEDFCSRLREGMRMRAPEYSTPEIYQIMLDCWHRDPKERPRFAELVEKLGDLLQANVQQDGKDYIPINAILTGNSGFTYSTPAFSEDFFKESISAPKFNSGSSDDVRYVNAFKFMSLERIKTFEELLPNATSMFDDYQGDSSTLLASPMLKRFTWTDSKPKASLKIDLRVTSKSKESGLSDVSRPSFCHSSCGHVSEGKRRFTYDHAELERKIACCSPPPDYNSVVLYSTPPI
Test: biochemical
Format: cell-based, HUVEC
Conditions: huvec

Row | Structure (SMILES) | IC50
22 | Brc1c(NC2=NCCN2)ccc2nccnc12 [BRIMONIDINE] | Not Active
23 | CN(C)[C@@H]1C(O)=C(C(N)=O)C(=O)[C@@]2(O)C(O)=C3C(=O)c4c(O)ccc(Cl)c4[C@@](C)(O)[C@H]3C[C@@H]12 [CHLORTETRACYCLINE] | Not Active
24 | CN/C(=N\CCSCc1nc[nH]c1C)NC#N [CIMETIDINE] | Not Active
25 | COc1cc(N)c(Cl)cc1C(=O)NC1CCN(CCCOc2ccc(F)cc2)CC1OC (stereo not drawn) [CISAPRIDE] | Not Active
26 | CCC(=O)O[C@]1(C(=O)CCl)[C@@H](C)C[C@H]2[C@@H]3CCC4=CC(=O)C=C[C@]4(C)[C@@]3(F)[C@@H](O)C[C@@]21C [CLOBETASOL PROPIONATE] | Not Active
27 | O=C1CN=C(c2ccccc2Cl)c2cc([N+](=O)[O-])ccc2N1 [CLONAZEPAM] | Not Active
28 | Nc1ccn([C@@H]2O[C@H](CO)[C@@H](O)[C@@H]2O)c(=O)n1 [CYTARABINE] | Not Active

Target: T3, Type-2 angiotensin II receptor (Homo sapiens, UniProt P50052); also: in other assays of this panel Not Active means under 50% inhibition at 10 µM
T3 sequence (P50052 whole entry): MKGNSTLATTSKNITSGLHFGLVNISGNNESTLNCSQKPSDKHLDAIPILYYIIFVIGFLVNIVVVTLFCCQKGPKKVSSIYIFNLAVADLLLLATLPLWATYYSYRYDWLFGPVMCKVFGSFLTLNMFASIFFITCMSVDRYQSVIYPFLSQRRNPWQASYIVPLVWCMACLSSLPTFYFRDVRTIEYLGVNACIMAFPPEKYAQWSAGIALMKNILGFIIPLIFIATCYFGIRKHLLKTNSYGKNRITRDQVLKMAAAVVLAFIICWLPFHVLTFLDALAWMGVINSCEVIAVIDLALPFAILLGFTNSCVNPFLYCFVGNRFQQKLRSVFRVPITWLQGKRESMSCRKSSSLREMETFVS
Test: not given
Format: cell-based
Conditions: cho-k1

Row | Structure (SMILES) | IC50
29 | Brc1c(NC2=NCCN2)ccc2nccnc12 [BRIMONIDINE] | Not Active
30 | CN(C)[C@@H]1C(O)=C(C(N)=O)C(=O)[C@@]2(O)C(O)=C3C(=O)c4c(O)ccc(Cl)c4[C@@](C)(O)[C@H]3C[C@@H]12 [CHLORTETRACYCLINE] | Not Active
31 | CN/C(=N\CCSCc1nc[nH]c1C)NC#N [CIMETIDINE] | Not Active
32 | COc1cc(N)c(Cl)cc1C(=O)NC1CCN(CCCOc2ccc(F)cc2)CC1OC (stereo not drawn) [CISAPRIDE] | Not Active
33 | CCC(=O)O[C@]1(C(=O)CCl)[C@@H](C)C[C@H]2[C@@H]3CCC4=CC(=O)C=C[C@]4(C)[C@@]3(F)[C@@H](O)C[C@@]21C [CLOBETASOL PROPIONATE] | Not Active
34 | O=C1CN=C(c2ccccc2Cl)c2cc([N+](=O)[O-])ccc2N1 [CLONAZEPAM] | Not Active
35 | Nc1ccn([C@@H]2O[C@H](CO)[C@@H](O)[C@@H]2O)c(=O)n1 [CYTARABINE] | Not Active

Tested on: not listed separately
Test: DRUGMATRIX: Serotonin (5-Hydroxytryptamine) 5-HT3 radioligand binding (ligand: [3H] GR-65630)
Format: cell membranes, Membrane
Conditions: hek293; Not Active = under 50% inhibition at 10 µM

Row | Structure (SMILES) | IC50 | Ki
36 | Brc1c(NC2=NCCN2)ccc2nccnc12 [BRIMONIDINE] | Not Active | Not Active
37 | CN(C)[C@@H]1C(O)=C(C(N)=O)C(=O)[C@@]2(O)C(O)=C3C(=O)c4c(O)ccc(Cl)c4[C@@](C)(O)[C@H]3C[C@@H]12 [CHLORTETRACYCLINE] | Not Active | Not Active
38 | CN/C(=N\CCSCc1nc[nH]c1C)NC#N [CIMETIDINE] | Not Active | Not Active
39 | COc1cc(N)c(Cl)cc1C(=O)NC1CCN(CCCOc2ccc(F)cc2)CC1OC (stereo not drawn) [CISAPRIDE] | Not Active | Not Active
40 | CCC(=O)O[C@]1(C(=O)CCl)[C@@H](C)C[C@H]2[C@@H]3CCC4=CC(=O)C=C[C@]4(C)[C@@]3(F)[C@@H](O)C[C@@]21C [CLOBETASOL PROPIONATE] | Not Active | Not Active
41 | O=C1CN=C(c2ccccc2Cl)c2cc([N+](=O)[O-])ccc2N1 [CLONAZEPAM] | Not Active | Not Active
42 | Nc1ccn([C@@H]2O[C@H](CO)[C@@H](O)[C@@H]2O)c(=O)n1 [CYTARABINE] | Not Active | Not Active

Target: T4, C-X-C chemokine receptor type 1 (Homo sapiens, UniProt P25024); also: in other assays of this panel Not Active means under 50% inhibition at 10 µM
T4 sequence (P25024 whole entry): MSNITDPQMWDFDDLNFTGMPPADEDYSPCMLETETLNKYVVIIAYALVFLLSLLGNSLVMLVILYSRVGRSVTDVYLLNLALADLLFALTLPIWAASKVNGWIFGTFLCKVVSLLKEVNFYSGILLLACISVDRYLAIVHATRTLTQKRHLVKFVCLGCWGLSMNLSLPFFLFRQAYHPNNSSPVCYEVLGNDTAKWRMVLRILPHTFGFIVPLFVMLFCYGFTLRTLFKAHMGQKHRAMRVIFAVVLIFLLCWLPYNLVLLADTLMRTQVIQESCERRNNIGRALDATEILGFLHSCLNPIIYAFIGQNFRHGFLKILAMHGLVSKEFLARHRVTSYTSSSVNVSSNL
Test: not given
Conditions: not given

Row | Structure (SMILES) | IC50
43 | Brc1c(NC2=NCCN2)ccc2nccnc12 [BRIMONIDINE] | Not Active
44 | CN(C)[C@@H]1C(O)=C(C(N)=O)C(=O)[C@@]2(O)C(O)=C3C(=O)c4c(O)ccc(Cl)c4[C@@](C)(O)[C@H]3C[C@@H]12 [CHLORTETRACYCLINE] | Not Active
45 | CN/C(=N\CCSCc1nc[nH]c1C)NC#N [CIMETIDINE] | Not Active
46 | COc1cc(N)c(Cl)cc1C(=O)NC1CCN(CCCOc2ccc(F)cc2)CC1OC (stereo not drawn) [CISAPRIDE] | Not Active
47 | CCC(=O)O[C@]1(C(=O)CCl)[C@@H](C)C[C@H]2[C@@H]3CCC4=CC(=O)C=C[C@]4(C)[C@@]3(F)[C@@H](O)C[C@@]21C [CLOBETASOL PROPIONATE] | Not Active
48 | O=C1CN=C(c2ccccc2Cl)c2cc([N+](=O)[O-])ccc2N1 [CLONAZEPAM] | Not Active
49 | Nc1ccn([C@@H]2O[C@H](CO)[C@@H](O)[C@@H]2O)c(=O)n1 [CYTARABINE] | Not Active
